Test results: patent publication US12516288B2, “Method for producing enteric neural precursors” (Kyoto University, priority 2018, dated 2026)
Where a name gives a salt, the structure may show the parent alone. Read-outs that look alike come from different tables or passages of the source.

Tests used:
[1] = system: artificial intestinal tract formed from an intestinal organoid; assay: Organ bath assay: contractile and relaxant responses of artificial intestinal tract to electrical stimulation; parameters: species or system human
[2] = system: vagal neural crest cells; assay: Study on composition of enteric neural precursor medium (NRG1 and/or GDNF not added); type: cell-based, human; conditions: for cell proliferation: enteric neural precursor medium without the named factor (factor-free conditions)
Experimental: The medium was aspirated and replaced with PBS. Then, the cells were detached using a cell scraper. The detached cell mass was dissociated by pipetting in Accutase® (Innovative Cell Technologies, Inc.). Then, MACS® Buffer (Miltenyi Biotec) was added thereto, and the cells were prepared into single cells through a 40 µm cell strainer. The obtained cell suspension was centrifuged at 300×g for 3 minutes. Then, the supernatant was removed, and the cells were suspended in an enteric neural precursor medium. The enteric neural precursor medium used was a mixture of solutions A and B of Stem Fit® AK03N containing 10 μM SB431542 (FUJIFILM Wako Pure Chemical Corp.), 1 μM CHIR99021 (Axon MedChem), 1 μM retinoic acid (FUJIFILM Wako Pure Chemical Corp.), 100 ng/mL neuregulin 1 (NRG1) (PeproTech, Inc.) and […] glial cell-derived neurotrophic factor (GDNF) (FUJIFILM Wako Pure Chemical Corp.). For adherent culture, Matrigel® (Corning Inc.) was added at 2% to the cell suspension, which was then cultured using a multiwell plate (Corning Inc.). For suspension culture, a multiwell plate (Corning Inc.) treated for low cell adhesion was used. The culture in both cases was carried out at 37° C. under 5% CO2.
Vagal neural crest cells were cultured in an enteric neural precursor medium under the same conditions as in Test Example 4 except that NRG1 and/or GDNF was not added to the enteric neural precursor medium. The cells were observed under a fluorescence microscope (BZ-X700, Keyence Corp.). Also, flow cytometry analysis was conducted by the same method as in Test Example 5.

CC(COc1ccccc1)N(CCCl)Cc1ccccc1 (centres unmarked) [phenoxybenzamine hydrochloride]
contractile response to electrical stimulation [1]: partially canceled

CN1[C@@H]2CC[C@H]1C[C@@H](OC(=O)C(CO)c1ccccc1)C2 (some centres unmarked) [atropine sulfate monohydrate]
contractile response to electrical stimulation [1]: partially canceled

CC(C)NCC(O)COc1cccc2ccccc12 (centres unmarked) [propranolol hydrochloride]
contractile response to electrical stimulation ([1]; addition of 10 μM, strip of artificial intestinal tract in Krebs solution): partially canceled

NC1=N[C@H](O)[C@H]2[C@H]3O[C@]4(O)O[C@@H]([C@@H](O)[C@@]2(N1)[C@@H]4O)[C@]3(O)CO [tetrodotoxin]
cancelation of the contractile response by atropine, phenoxybenzamine or propranolol [1]: disappeared

COC(=O)[C@@H](N)CCCN=C(N)N[N+](=O)[O-].Cl [NG-nitro-L-arginine methyl ester hydrochloride]
relaxant response dependent on electrical stimulation ([1]; after atropine, phenoxybenzamine, propranolol, concentration not given): disappeared

B1: GDNF: factor encoded by GDNF gene; acts as an agonist of GFRα1 and RET (protein, UniProt P39905 78-211, looked up)
Glial cell line-derived …: SPDKQMAVLPRRERNRQAAAANPENSRGKGRRGQRGKNRGCVLTAIHLNVTDLGLGYETKEELIFRYCSGSCDAAETTYDKILKNLSRNRRLVSDKVGQACCRPIAFDDDLSFLDDNLVYHILRKHSAKRCGCI
cell proliferation [2]: slower than that under the conditions involving GDNF

B2: NRG1: EGF-like growth factor encoded by NRG1 gene; activates downstream signaling by binding to ERBB3 and ERBB4 (protein, listed as Homo sapiens)
chain: MSERKEGRGKGKGKKKERGSGKKPESAAGSQSPALPPRLKEMKSQESAAGSKLVLRCETSSEYSSLRFKWFKNGNELNRKNKPQNIKIQKKPGKSELRINKASLADSGEYMCKVISKLGNDSASANITIVESNEIITGMPASTEGAYVSSESPIRISVSTEGANTSSSTSTSTTGTSHLVKCAEKEKTFCVNGGECFMVKDLSNPSRYLCKCPNEFTGDRCQNYVMASFYKHLGIEFMEAEELYQKRVLTITGICIALLVVGIMCVVAYCKTKKQRKKLHDRLRQSLRSERNNMMNIANGPHHPNPPPENVQLVNQYVSKNVISSEHIVEREAETSFSTSHYTSTAHHSTTVTQTPSHSWSNGHTESILSESHSVIVMSSVENSRHSSPTGGPRGRLNGTGGPRECNSFLRHARETPDSYRDSPHSERYVSAMTTPARMSPVDFHTPSSPKSPPSEMSPPVSSMTVSMPSMAVSPFMEEERPLLLVTPPRLREKKFDHHPQQFSSFHHNPAHDSNSLPASPLRIVEDEEYETTQEYEPAQEPVKKLANSRRAKRTKPNGHIANRLEVDSNTSSQSSNSESETEDERVGEDTPFLGIQNPLAASLEATPAFRLADSRTNPAGRFSTQEEIQARLSSVIANQDPIAV
cell number necessary for conducting flow cytometry ([2]; enteric neural precursor medium without the named factor): not obtained
cell proliferation [2]: very slow
